Experimental findings from patent US3968101A, “8-Substituted cyclic nucleotides by free radical alkylation and acylation” (ICN Pharmaceuticals, Inc., priority 1974, dated 1976) are described below.

Structures are written as SMILES.

In experiment [1] the test system is cAMP-dependent protein kinase. Description: Activation of cAMP-dependent protein kinase isolated from beef brain. The conditions noted are these: ratio of Ka of cAMP to Ka of test compound; bovine brain cAMP-dependent kinase. The class given is biochemical, bovine. The text has this: The new 8-substituted purine cyclic nucleotides were examined for their ability to stimulate both a cAMP-dependent protein kinase isolated from beef brain and a cGMP-dependent protein kinase isolated from lobster tail (see Table II).
a Ka ' = The ratio of Ka of the dependent cyclic nucleotide (cAMP for bovine brain and cGMP for lobster tail) to the Ka of the test compound.

For experiment [2], the system named is cGMP-dependent protein kinase. Nature of the experiment: Activation of cGMP-dependent protein kinase isolated from lobster tail. The class given is biochemical. The following applies: for Protein Kinase, Ka ' Lobster: ratio of Ka of cGMP to Ka of test compound, lobster tail cGMP-dependent kinase. An excerpt:
The new 8-substituted purine cyclic nucleotides were examined for their ability to stimulate both a cAMP-dependent protein kinase isolated from beef brain and a cGMP-dependent protein kinase isolated from lobster tail (see Table II). […]. Acad. Sci. USA 64, 1349, Kuo et al, 1971, J. Biol. Chem. 246,7159) to be mediated by its activation of a protein kinase.
The Ka of cAMP for the cAMP-dependent protein kinase is about the same (see footnote a, Table II) as the Ka of cGMP for the cGMP-dependent protein kinase. Comparison of the Ka ' values (the ratio of Ka of the dependent cyclic nucleotide to the Ka of the test compound) is, therefore, an accurate guide to the type of kinase stimulation seen at a given cyclic nucleotide concentration.
a Ka ' = The ratio of Ka of the dependent cyclic nucleotide (cAMP for bovine brain and cGMP for lobster tail) to the Ka of the test compound. […]

In experiment [3] the target is cyclic nucleotide phosphodiesterase. Nature of the experiment: Inhibition of cAMP hydrolysis by rabbit lung cyclic nucleotide phosphodiesterase. The class given is biochemical. The following applies: rabbit lung enzyme; 50% inhibition of cleavage of cAMP, cAMP = 1.6 × 10^-7 M; read-out: Phosphodiesterase Inhibition, I50 Lung. An excerpt:
(§1) Homogenates of rabbit lung and beef heart are made in sucrose-Tris-magnesium buffer and are subjected to centrifugation at low speed to remove nuclei and cell debris. […] The precipitation which forms at 0-50% saturation is collected by centrifugation at 20,000 × g, dissolved in Tris-magnesium buffer, and dialyzed overnight against the same buffer.

The target is the same in experiment [4]. Nature of the experiment: Inhibition of cAMP hydrolysis by beef heart cyclic nucleotide phosphodiesterase. The class given is biochemical. The following applies: beef heart enzyme; 50% inhibition of cleavage of cAMP, cAMP = 1.6 × 10^-7 M; read-out: Phosphodiesterase Inhibition, I50 Heart.
Source text: as §1

Experiment [5] deals with cyclic nucleotide phosphodiesterase. Nature of the experiment: Susceptibility to hydrolysis by rabbit kidney cyclic nucleotide phosphodiesterase. The class given is biochemical. The conditions noted are these: rabbit kidney enzyme preparation; times the rate of cAMP. The text has this: All compounds were examined for their susceptibility to hydrolysis by cyclic nucleotide phosphodiesterase. Both cGMP and cIMP were hydrolyzed at approximately one-half the rate of cAMP by a rabbit kidney enzyme preparation generally prepared in the manner described below for rabbit lung enzyme. The new 8-substituted derivatives were not substrates (rate of hydrolysis<0.05 that of the rate of cAMP hydrolysis) within the limits of detection of our assay, with the sole exception of 8-(1-hydroxybutyl)-cGMP (12), which was hydrolyzed at a rate 0.18 times the rate of hydrolysis of cAMP. This finding is in agreement with the general conclusion that 8-substitution of a purine 3',5'-cyclic ribonucleotide greatly reduces the ability of the resulting derivative to serve as a substrate for cyclic nucleotide phosphodiesterase.

`CCCC(O)c1nc2c(=O)[nH]c(N)nc2n1[C@@H]1O[C@@H]2COP(=O)(O)O[C@H]2[C@H]1O` (some centres unmarked) [Compound 12, 8-(1-Hydroxybutyl)guanosine 3',5'-Cyclic Phosphate]: the “Protein Kinase, Ka ' Bovine” value in experiment [1] is on record as under 0.001. In addition, the “Protein Kinase, Ka ' Lobster” value in experiment [2] amounted to 0.62. Also, the IC50 stood at 133 µM in experiment [3] and 29 µM in experiment [4]. In addition, the “rate of hydrolysis relative to the rate of cAMP hydrolysis” value in experiment [5] is on record as 0.18.

For the compound `O=c1[nH]cnc2c1ncn2[C@@H]1O[C@@H]2COP(=O)(O)O[C@H]2[C@H]1O` [Compound 19, Inosine 3',5'-cyclic phosphate, reference compound], the “Protein Kinase, Ka ' Bovine” value in experiment [1] is listed as 0.59. In experiment [2] (lobster tail cGMP-dependent versus bovine brain cAMP-dependent kinase), the “specificity between cGMP-dependent and cAMP-dependent protein kinase (in words)” value is listed as “greater activation of the cAMP-dependent kinase”. Moreover, the “Protein Kinase, Ka ' Lobster” value in experiment [2] is 0.085. Further, the IC50 in experiment [3] turned out to be 100 µM; in experiment [4], 3.9 µM. Further, the “rate of hydrolysis relative to the rate of cAMP hydrolysis” value in experiment [5] is given as “approximately one-half”.
